# Source: paper PMC11981937 (Nature, 2025)
# “And” between values parts separate entries of the source, which are not always exact repeats. Equal values may be shown once. Read-outs that look alike come from different tables or passages of the source.
# Legend:
# [1] = tested on: SARS-CoV-2 (USA-WA1/2020); parameters: species or system Syrian golden hamster; conditions: hamster, in vivo
# [2] = tested on: SARS-CoV-2; type: in vivo, Syrian golden hamster; conditions: for Infectious virus in the lung (TCID50), Copy number, individual animal / Infectious virus in the lung (TCID50), Log 10, individual animal / Viral load (viral RNA) in the lung, Copy number, individual animal / Viral load (viral RNA) in the lung, Log 10, individual animal / Infectious virus in the lung (TCID50), average Log 10 / Infectious virus in the lung (TCID50), median Log 10 / Viral load (viral RNA) in the lung, average Log 10 / Viral load (viral RNA) in the lung, median Log 10: 250mg/kg/ BID; for Infectious virus in the lung (TCID50), average Log 10 / Infectious virus in the lung (TCID50), median Log 10 / Viral load (viral RNA) in the lung, average Log 10 / Viral load (viral RNA) in the lung, median Log 10: n=5
# [3] = Post-exposure Syrian golden hamster model, body weight; conditions: in vivo
smiles,measurement,setting,value
"CC(C)(C)[C@H](NC(=O)C(F)(F)F)C(=O)N1C[C@H]2[C@@H]([C@H]1C(=O)N[C@H](C#N)C[C@@H]1CCNC1=O)C2(C)C [nirmatrelvir, reference compound]","Infectious SARS-CoV2 virus in the lung, Avg",[1],4651963 PFU/g Lung
same,"Infectious SARS-CoV2 virus in the lung, Log10, Avg",[1],5.697 Log10 PFU/g Lung
same,"SARS-CoV2 viral load (viral RNA) in the lung, Avg",[1],46452968 RNA copies/mL
same,"SARS-CoV2 viral load (viral RNA) in the lung, Log10, Avg",[1],6.876 Log10 RNA copies/mL
same,"Infectious virus in the lung (TCID50), Copy number, individual animal",[2]; 10 h post exposure,2.74E+02 and 1.40E+02 and 3.86E+02
same,"Infectious virus in the lung (TCID50), Log 10, individual animal",[2]; 10 h post exposure,2.44 Log 10 and 3.68 Log 10 and 2.14 Log 10 and 3.67 Log 10 and 2.59 Log 10
same,"Viral load (viral RNA) in the lung, Copy number, individual animal",[2]; 10 h post exposure,3.26E+07 and 1.08E+07 and 4.11E+07 and 4.76E+07 and 5.79E+06
same,"Viral load (viral RNA) in the lung, Log 10, individual animal",[2]; 10 h post exposure,7.51 Log 10 and 7.03 Log 10 and 7.61 Log 10 and 7.68 Log 10 and 6.76 Log 10
same,"Infectious virus in the lung (TCID50), average Log 10",[2]; 10 h post exposure,2.90 Log 10
same,"Infectious virus in the lung (TCID50), median Log 10",[2]; 10 h post exposure,2.59 Log 10
same,"Viral load (viral RNA) in the lung, average Log 10",[2]; 10 h post exposure,7.32 Log 10
same,"Viral load (viral RNA) in the lung, median Log 10",[2]; 10 h post exposure,7.51 Log 10
same,"Infectious virus in the lung (TCID50), Copy number, individual animal",[2]; 24 h post exposure,3.74E+03 and 5.43E+02 and 1.15E+04 and 7.40E+03
same,"Infectious virus in the lung (TCID50), Log 10, individual animal",[2]; 24 h post exposure,3.57 Log 10 and 2.74 Log 10 and 4.06 Log 10 and 3.67 Log 10 and 3.87 Log 10
same,"Viral load (viral RNA) in the lung, Copy number, individual animal",[2]; 24 h post exposure,4.02E+07 and 9.08E+07 and 1.10E+07 and 3.49E+07 and 2.71E+07
same,"Viral load (viral RNA) in the lung, Log 10, individual animal",[2]; 24 h post exposure,7.60 Log 10 and 7.96 Log 10 and 7.04 Log 10 and 7.54 Log 10 and 7.43 Log 10
same,"Infectious virus in the lung (TCID50), average Log 10",[2]; 24 h post exposure,3.58 Log 10
same,"Infectious virus in the lung (TCID50), median Log 10",[2]; 24 h post exposure,3.67 Log 10
same,"Viral load (viral RNA) in the lung, average Log 10",[2]; 24 h post exposure,7.52 Log 10
same,"Viral load (viral RNA) in the lung, median Log 10",[2]; 24 h post exposure,7.54 Log 10
same,"Infectious virus in the lung (TCID50), Copy number, individual animal",[2]; 48 h post exposure,5.70E+02 and 4.90E+02 and 1.00E+02 and 6.63E+02 and 1.50E+03
same,"Infectious virus in the lung (TCID50), Log 10, individual animal",[2]; 48 h post exposure,2.76 Log 10 and 2.69 Log 10 and 2.00 Log 10 and 2.82 Log 10 and 3.17 Log 10
same,"Viral load (viral RNA) in the lung, Copy number, individual animal",[2]; 48 h post exposure,1.41E+08 and 2.05E+07 and 3.56E+08 and 4.63E+07 and 6.23E+07
same,"Viral load (viral RNA) in the lung, Log 10, individual animal",[2]; 48 h post exposure,8.15 Log 10 and 7.31 Log 10 and 8.55 Log 10 and 7.67 Log 10 and 7.79 Log 10
same,"Infectious virus in the lung (TCID50), average Log 10",[2]; 48 h post exposure,2.69 Log 10
same,"Infectious virus in the lung (TCID50), median Log 10",[2]; 48 h post exposure,2.76 Log 10
same,"Viral load (viral RNA) in the lung, average Log 10",[2]; 48 h post exposure,7.89 Log 10
same,"Viral load (viral RNA) in the lung, median Log 10",[2]; 48 h post exposure,7.79 Log 10
same,reduction of lung viral RNA load and infectious virus (in words),"[2]; post-exposure, 250 mg per kg BID",not significant
same,Average body weight change (%) on day 4 compared to day 0,[3],-2.756% and -3.747% and -5.087%
